Results as given in patent US20240173323A1, “COMBINATION THERAPY FOR CANCER TREATMENT” (Takeda Pharmaceutical Company Limited, priority 2021, published 2024).
Entries after “also recorded” stand apart in the source; their conditions may differ.

Test system: PHTXS-13O human primary ovarian cancer xenografts
Test: In vivo antitumor activity of Compound 1 in combination with PARP inhibitor in Patient Derived Xenograft (PDX) model
Settings: PHTXS-13O PDX in nude mice
Description: To investigate in vivo antitumor activity of Compound 1 in combination with PARP inhibitor, tests using Patient Derived Xenograft (PDX) model were conducted. Patient Derived Tumors were inoculated by the following Method.
Method: Patient Derived Tumors were maintained in nude mice by subcutaneous inoculation of tumor pieces (approx. 2×2×2 mm) into nude mice. Mice with tumor size of approximately 130 mm^3 (e.g., 125-130 mm^3) for xenograft studies were randomly assigned to dose groups on the day (Day 0) before start date of dosing.
Compound 1 (crystalline form I) was suspended in solution comprising 0.5 w/v % methylcellulose and administered orally to mice.
Tumor size was measured by caliper and tumor volume was estimated using the equation V=(LW^2)/2, where L and W are tumor length and width, respectively and reported in cubic millimeters.
Statistical analyses of combination effect for tumor growth was conducted as follows; […]
For synergy analyses, the observed differences in the log tumor values were used to calculate AUC values for each animal In instances when an animal in a treatment group was removed from the study, the last observed tumor value was carried forward through all subsequent time points. The AUC for the control, or vehicle, group was calculated using the predicted values from the pairwise models described above. […]

Compound: Cc1[nH]ncc1-c1cc2nc([C@@H]3CC4CCN3CC4)[nH]c(=O)c2s1 [Compound 1, 2-[(2S)-1-azabicyclo[2.2.2]oct-2-yl]-6-(3-methyl-1H-pyrazol-4-yl)thieno[3,2-d]pyrimidin-4(3H)-one]
- antitumor activity (tumor volume) of Compound 1 combined with olaparib (Compound 1 40 or 60 mg/kg once daily orally Day 1-14 + olaparib 25 or 50 mg/kg daily orally Days 1-14, compared to either single treatment alone (FIG. 2)): good antitumor efficacy; also recorded: strong antitumor activity
- antitumor activity (tumor volume) of Compound 1 combined with niraparib (Compound 1 40 or 60 mg/kg once daily orally Day 1-21 + niraparib 25 or 50 mg/kg daily orally Days 1-21, compared to either single treatment alone (FIG. 1)): good antitumor efficacy; also recorded: strong antitumor activity
